Measured values: US11725036B2, “Modified lipidated relaxin B chain peptides and their therapeutic use” (Sanofi, priority 2018, dated 2023)
Values after ≈ are worked out from the molar mass of the structure shown. Starred links: 1 amine or outer side, 2 acyl side, 3 side chain; linkers in the order of their positions; H or OH if unused. Non-standard residues stand in square brackets, D forms with d. Residues, ends and D or L forms follow the SMILES beside them. Groups on a side chain read outwards from the residue. *: point of attachment. X1 = CCCCCCCCCCCCCCCC(=O)N[C@@H](CCC(=O)N[C@@H](CCC(=O)N[C@@H](CCC(=O)NCCCOCCOCCOCCCNC(=O)CCC(=O)NCCCOCCOCCOCCCNC(=O)CCC(=O)NCCCOCCOCCOCCCN*)C(=O)O)C(=O)O)C(=O)O; X4 = CCCCCCCCCCCCCCCCCC(=O)N[C@@H](CCC(=O)N[C@@H](CCC(=O)N[C@@H](CCC(=O)NCCCOCCOCCOCCCNC(=O)CCC(=O)NCCCOCCOCCOCCCN*)C(=O)O)C(=O)O)C(=O)O; Suc = O=C(CCC(=O)[*:2])[*:1]; Aib = CC(C)(N)C(=O)O

Assays:
RXFP1 = target: T1, RXFP1 (Homo sapiens, UniProt Q9HBX9); assay: OVCAR5 cAMP assay (HTRF); assay type: cell-based; conditions: for EC50: OVCAR 5 cells expressing endogenous RXFP1, cAMP readout; for Emax: OVCAR 5 cells, maximal cAMP relative to H2-relaxin
T1 construct: OVCAR5 cells expressing endogenous RXFP1; endogenous in cells; host or cells: OVCAR5
T1 sequence (Q9HBX9 1-757): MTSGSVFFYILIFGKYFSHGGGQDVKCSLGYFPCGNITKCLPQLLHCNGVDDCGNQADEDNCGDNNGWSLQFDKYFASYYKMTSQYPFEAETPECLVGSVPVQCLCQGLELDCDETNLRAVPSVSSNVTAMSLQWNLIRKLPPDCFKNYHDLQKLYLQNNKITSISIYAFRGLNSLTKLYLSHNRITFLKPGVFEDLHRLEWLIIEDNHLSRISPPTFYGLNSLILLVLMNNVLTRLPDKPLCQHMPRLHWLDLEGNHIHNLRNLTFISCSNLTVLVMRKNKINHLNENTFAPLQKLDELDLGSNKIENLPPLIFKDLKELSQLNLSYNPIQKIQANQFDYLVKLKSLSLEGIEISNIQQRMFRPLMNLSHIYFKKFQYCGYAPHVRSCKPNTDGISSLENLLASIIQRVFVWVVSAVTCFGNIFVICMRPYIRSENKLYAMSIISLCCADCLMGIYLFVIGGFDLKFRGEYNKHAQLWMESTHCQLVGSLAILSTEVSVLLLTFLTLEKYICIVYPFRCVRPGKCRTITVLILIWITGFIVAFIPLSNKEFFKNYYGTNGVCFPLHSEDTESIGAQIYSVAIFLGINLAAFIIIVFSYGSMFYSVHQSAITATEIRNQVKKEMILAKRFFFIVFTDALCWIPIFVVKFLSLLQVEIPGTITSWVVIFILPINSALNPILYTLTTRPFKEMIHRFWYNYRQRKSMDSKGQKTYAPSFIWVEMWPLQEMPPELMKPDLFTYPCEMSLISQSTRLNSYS
How it was run: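 Peptide agonism measured as intracellular cAMP (HTRF) after 30 min at 37° C in serum-free medium, following 40 min 1 mM IBMX preincubation of OVCAR5 cells. Nonlinear regression gave EC50; Emax % = 100 × compound maximal cAMP / H2-relaxin maximal cAMP.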

Stability in rat plasma = assay type: in vitro ADME; conditions: for Rat plasma stability % remaining: T = 0, 37° C., 5 μM; for remaining at 1 h, 5 μM: rat, plasma (sodium or lithium heparin), 37° C.
Protocol: (§1) Prior to the testing of stability in plasma (or blood) of a peptide batch, its purity (HPLC-UV) was determined.
(§2) Rat and Human plasma: anti-coagulant sodium or lithium heparin.
(§3) 100 μM solution of study compound in 50 mM phosphate buffer pH 7.4.
(§4) 950 μL plasma (or blood) was pre-incubated for 5 min at 37° C. 50 μL of compound stock solution was added. Final compound concentration=5 μM. Vortex and transfer 150 μL plasma (or blood) into an Eppendorf for each time point. The time points […] were carried out in duplicate for each species.
(§5) After incubation, 150 μL plasma (or blood) was extracted with 600 μL Acetonitrile containing 1% TFA. Said mixture was then vortexed and centrifuged 10 min at 14600 rpm. 200 μL supernatant was dried under N2. Sample was then reconstituted in 200 μL of H2O/CH3CN 98/2+0.1% FA+50 ng/ml Labetalol and analyzed using the analytical system used in solubility and stability studies.
(§6) For determination of the amount of the remaining peptide, the peak areas of the target compound at t0 and each time point […] were compared, resulting in “% remaining peptide”, following the equation: % remaining peptide=[(peak area peptide time)×100]/peak area peptide t0. The stability was expressed as “% remaining peptide”.

[1] = Stability in human plasma; assay type: in vitro ADME; conditions: for Human Plasma stability % remaining: T = 0, 37° C., 5 μM; for remaining at 1 h, 5 μM / remaining at 4 h, 5 μM: human, plasma (sodium or lithium heparin), 37° C.
Protocol: as §1, §2, §3, §4, §5, §6

[2] = Solubility testing in buffer; assay type: physicochemical; conditions: phosphate buffer 50 mM pH 7.4; target solubility 10.0 mg/ml; read-out: Solubility phosphate buffer pH 7.4
in vivo = assay: in vivo; design: species or system Sprague Dawley rats; conditions: Sprague Dawley, rat
Protocol: Prior to the testing of a peptide batch, its purity (HPLC-UV) was determined. Dose was corrected for presence of salts, solvent and purity. Bioanalytical screening method for quantification of peptides in rat: Sprague Dawley rats were dosed with study peptide at a dose of 1 mg/kg intravenously (i.v.) or 3 mg/kg subcutaneously (s.c.) as a solution in PBS (0.2 mg/ml and 0.6 mg/ml respectively). Blood samples were collected after: 0.083, 0.25, 0.5, 1, 2, 4, 8, 24, 48 and 72 h (i.v. route) and 0.25, 0.5, 1, 2, 4, 6, 8, 10, 24, 48 and 72 h (s.c route) post application. Plasma samples were analyzed after protein precipitation via liquid chromatography mass spectrometry (LC/MS). PK parameters and half-life were calculated using Phoenix 64 (WinNonlin 6.4)-Pharsight (Certara™) (non-compartment model). Values below the limit of quantification (BLQ) were replaced by zero for subsequent calculations and PK analysis. T½: in-vivo half-life, time required for test compound plasma concentration to be divided by two during the PK experiment. C0: Extrapolated test compound plasma concentration at t=0 time point (i.v. route). Cmax: maximal test compound plasma concentration at the indicated time point (s.c. route). Tmax: Time point where Cmax was attained. F %: s.c. vs i.v. bioavailability, dose-corrected area under curve (AUC) s.c. route divided by AUC i.v.

Row | EC50 (RXFP1) [nM] | Emax (RXFP1) [%] | Rat plasma stability % remaining (Stability in rat plasma) [%] | remaining at 1 h, 5 μM (Stability in rat plasma) [%] | Human Plasma stability % remaining [1] [%] | remaining at 1 h, 5 μM [1] [%] | remaining at 4 h, 5 μM [1] [%] | solubility [2] [µg/mL] | C0 (in vivo; iv, 1 mg/kg) [µM] | half-life (in vivo; iv, 1 mg/kg) [h] | bioavailability (in vivo; sc) [%] | Cmax (in vivo; sc, 3 mg/kg) [µM] | Tmax (in vivo; sc, 3 mg/kg) [h] | Molecule
1 | 2.12 | 91 | 89 | 100 | 100 | 91 | 89 | 7680 (≈ 1770 µM) | – | – | – | – | – | CCCCCCCCCCCCCCCC(=O)N[C@@H](CCC(=O)N[C@@H](CCC(=O)N[C@@H](CCC(=O)NCCCOCCOCCOCCCNC(=O)CCC(=O)NCCCOCCOCCOCCCNC(=O)CCC(=O)NCCCOCCOCCOCCCNC(=O)CCC(=O)NCCCC[C@H](NC(=O)CNC(=O)[C@H](CCC(=O)O)NC(=O)C(C)(C)NC(=O)C(C)(C)NC(=O)[C@@H](NC(=O)[C@H](CCCCNC(C)=O)NC(=O)[C@H](C)NC(=O)[C@H](CCCNC(=N)N)NC(=O)[C@@H](NC(=O)[C@H](CCCCN)NC(=O)[C@H](CCC(=O)O)NC(=O)[C@H](CCCNC(=N)N)NC(=O)CNC(=O)[C@H](CCC(=O)O)NC(=O)[C@H](CC(C)C)NC(C)=O)C(C)C)[C@@H](C)CC)C(=O)N[C@@H](CO)C(=O)N[C@H](C(=O)N[C@@H](Cc1ccccc1)C(=O)N[C@@H](CO)C(=O)N[C@@H](CCCCN)C(=O)N[C@@H](CCCNC(=N)N)C(=O)N[C@@H](C)C(=O)N[C@@H](CCCCNC(C)=O)C(N)=O)[C@@H](C)O)C(=O)O)C(=O)O)C(=O)O [compound 13] (Ac-LEGREKVRAK(Ac)I[Aib][Aib]EGK([Suc-X1])STFSKRAK(Ac)-NH2)
2 | – | – | 100 | – | 100 | – | – | – | – | – | – | – | – | Ac-VIKLSGRELVRAQIAISGMSTWSKRSL-NH2 [AcB7-33 C11.23S, reference compound]
3 | – | – | 100 | – | 100 | – | – | – | – | – | – | – | – | H-VIKLSGRELVRAQIAISGMSTWSKRSL-NH2 [B7-33 C11.23S, reference compound]
4 | 0.27 | 95 | 97 | 94 | 97 | 92 | 91 | – | 5.17 | 5.59 | 72 | 2.71 | 8 | CCCCCCCCCCCCCCCCCC(=O)N[C@@H](CCC(=O)N[C@@H](CCC(=O)N[C@@H](CCC(=O)NCCCOCCOCCOCCCNC(=O)CCC(=O)NCCCOCCOCCOCCCNC(=O)CCC(=O)NCCCC[C@H](NC(=O)CNC(=O)[C@H](CCC(=O)O)NC(=O)C(C)(C)NC(=O)C(C)(C)NC(=O)[C@@H](NC(=O)[C@H](CCCCNC(C)=O)NC(=O)[C@H](C)NC(=O)[C@H](CCCNC(=N)N)NC(=O)[C@@H](NC(=O)[C@H](CCCCN)NC(=O)[C@H](CCC(=O)O)NC(=O)[C@H](CCCNC(=N)N)NC(=O)CNC(=O)[C@H](CCC(=O)O)NC(=O)[C@H](CC(C)C)NC(C)=O)C(C)C)[C@@H](C)CC)C(=O)N[C@@H](CO)C(=O)N[C@H](C(=O)N[C@@H](Cc1c[nH]c2ccccc12)C(=O)N[C@@H](CO)C(=O)NC(C)(C)C(=O)N[C@@H](CCCNC(=N)N)C(=O)N[C@@H](CCCCN)C(=O)N[C@@H](CCCCNC(C)=O)C(N)=O)[C@@H](C)O)C(=O)O)C(=O)O)C(=O)O [compound 6] (Ac-LEGREKVRAK(Ac)I[Aib][Aib]EGK([Suc-X4])STWS[Aib]RKK(Ac)-NH2)
